Assay results as given in ChEMBL document CHEMBL5584331, “Methyl-Transferase-Like Protein 16 (METTL16): The Intriguing Journey of a Key Epitranscriptomic Player Becoming an Emerging Biological Target” (J Med Chem, 2024).

Legend:
NOMO-1 = test: Antiproliferative activity against human NOMO-1 cells assessed as reduction in cell viability incubated for 48 hrs by MTT assay; type: functional, cell-based; conditions: NOMO-1, 48 h
[1] = target: N6-adenosine-methyltransferase catalytic subunit (Homo sapiens, UniProt Q86U44); test: Binding affinity to METTL3 (unknown origin) assessed as dissociation constant
N6-adenosine-methyltransferase catalytic subunit, sequence (Q86U44 whole entry): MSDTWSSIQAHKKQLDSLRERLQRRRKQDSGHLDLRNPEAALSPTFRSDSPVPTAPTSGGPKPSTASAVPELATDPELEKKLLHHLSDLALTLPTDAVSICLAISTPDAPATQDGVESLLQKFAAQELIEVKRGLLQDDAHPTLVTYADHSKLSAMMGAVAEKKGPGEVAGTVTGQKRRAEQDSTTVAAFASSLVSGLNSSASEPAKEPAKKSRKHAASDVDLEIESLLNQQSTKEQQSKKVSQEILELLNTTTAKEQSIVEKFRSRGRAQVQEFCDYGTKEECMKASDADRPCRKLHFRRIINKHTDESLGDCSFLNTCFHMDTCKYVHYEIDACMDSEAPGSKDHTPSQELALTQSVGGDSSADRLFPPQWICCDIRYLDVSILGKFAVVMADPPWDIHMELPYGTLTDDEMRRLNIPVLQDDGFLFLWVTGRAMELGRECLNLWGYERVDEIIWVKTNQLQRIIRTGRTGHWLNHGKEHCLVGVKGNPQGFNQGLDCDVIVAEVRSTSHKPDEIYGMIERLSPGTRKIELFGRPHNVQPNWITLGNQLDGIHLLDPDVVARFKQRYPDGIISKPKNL

Structure (SMILES) | IC50 (NOMO-1) [nM] | Kd [1] [nM]
N#Cc1ccc(Cn2ccc3c4c(N)nc(N)nc4ccc32)cc1 | 20.6 | –
C/C(=N\NC(N)=S)c1ccc(F)cc1 | – | 2840
C/C(=N\N=C(/N)S)c1ccccc1 [PHENYL(METHYL)THIOSEMICARBAZONE] | – | 3310
